Entries after “also recorded” stand apart in the source; their conditions may differ.
How the values were obtained:
[1] = tested on: IκBα phosphorylation and degradation; assay: Western blot of TNFα-induced IκBα phosphorylation and degradation in VSMCs; format: cell-based; settings: rat aortic VSMCs; TNFα 10 ng/ml; vinpocetine 50 μM, nifedipine 30 μM, IC86340 15 μM, EGTA 2 mM, BAPTA/AM 30 μM
Experimental: (§1) Rat aortic VSMCs were treated with TNFα (10 ng/ml) for different time periods (0-30 minutes) as indicated in the presence or absence of vinpocetine ([…]). Western Blotting analysis was carried out to evaluate the levels of phosphorylated IκBα, total IκBα- and β-actin. […] IKK kinase activity was analyzed by an immune complex kinase assay. […] VSMCs were treated with TNFα for 10 min in the presence of various doses of vinpocetine as indicated. FIG. 8D illustrates the relative IKK activity as indicated. Intensities of the GST-IκBα bands in the autoradiogram were measured by densitometric scanning. Results were normalized to the control ([vinpocetine]=0) that is arbitrarily set to 100%. *p<0.05, **p<0.01 vs. vitipocetine at zero. FIGS. 8E-H illustrate the effects of vinpocetine on NF-κB activation induced by expressing constitutive active form of either MEKK1 (CA-MEKK1) (FIG. 8E), IKKα (CA-IKKα) (FIG. 8F), IKKβ (CA-IKKβ) (FIG. 8G), or WT p65 (FIG. 8H) in VSMCs.
(§2) Rat aortic VSMCs were treated with TNFα (10 ng/ml) for 10 minutes in the presence of either 50 μM vinpocetine, 30 μM nifedipine (Ca^2+ channel blocker), 15 μM IC86340 (PDE1 inhibitor), 2 mM EGTA (extracellular Ca^2+ chelator), or 30 μM BAPTA/AM (intracellular Ca^2+ chelator). […] Western Blotting analysis was carried out to evaluate the levels of phosphorylated IκBα total IκBα and β-actin. Data represent at least three independent experiments.
Cells lysates were prepared in the buffer containing 20 mM Tris-HCl (pH8.0), 0.5 M NaCl, 0.25% Triton X-100, 1 mM EDTA, 1 mM EGTA, 10 mM-glycerophosphate, 10 mM NaF, 100 μM Na3VO4, 1 mM benzamidine, 2 μM PMSF, 1 mM DTT and protease inhibitor cocktail (Sigma, MO. USA), by scraping, sonication, and centrifugation at 12,000 g for 15 min. Supernatant were collected and then subjected to SDS-PAGE and Western blot analysis with indicated antibodies.

[2] = tested on: IKK; assay: IKK immune complex kinase assay from TNFα-treated VSMCs; format: cell-based, rat; settings: for effect on the ability of vinpocetine on IKK kinase activity, IκB phosphorylation, IκB degradation or NF-κB-dependent transcriptional activity: co-treatment with vinpocetine; for TNFα-induced IKK kinase activity: rat aortic VSMCs treated with TNFα 10 min in the presence of compound
Experimental: as §1, §2
Cell lysates were prepared as described above. 1 mg of cell lysates were incubated with 1-2 μg of anti-IKKα (Santa Cruz, Calif., USA) for 1-2 h, followed by 50μl of 50% of slurry protein A/G plus-Agarose for another 1 h or overnight at 4° C. Immunoprecipitants were then washed two times with lysis buffer and once with kinase buffer without ATP. In vitro kinase assay were performed in kinase buffer containing 20 mM HEPES (pH 7.7), 2 mM MgCl2, 2 mM MnCl2, 10 μM ATP, 5 μCi of [γ-^32P]ATP (Amersham Biosciences, NJ, USA), 10 mM glycerophosphate, 10 mM NaF, 100 μM Na3VO4, 1 mM benzamidine, 2 μM PMSF, 1 mM DTT and protease inhibitor cocktail (Sigma, MO, USA) at 30° C. for 30-60 min, in the presence of substrate GST-IκBα (AA 1-54) (kindly provided by Dae-Myung Jue, Catholic University of Korea). Proteins were separated by 12% SDS-PAGE and subjected to autoradiography. Phosphorylation of GST-IκBα was quantified in NIH Image 1.60.
Because IKK is known as the major upstream kinase for IκBα phosphorylation and degradation, whether vinpocetine inhibits IκB phosphorylation and degradation via inhibition of IKK was determined. TNFα-induced activation of IKK was confirmed by performing IKK kinase assay in TNFα-stimulated VSMCs. The crude cell lysates from treated VSMCs were first immunoprecipitated with an anti-IKKα antibody and IKK kinase activity was then measured in vitro with IKK immune complexes incubated with the substrate GST-IκBα in the presence of [γ-^32P]-ATP.

[3] = tested on: NF-κB-dependent promoter activity; assay: NF-κB-Luc dual luciferase reporter assay in rat aortic VSMCs
[4] = tested on: pro-inflammatory mediators at mRNA levels; assay: Q-PCR of TNFα-induced pro-inflammatory mediators in rat aortic VSMCs; format: cell-based; settings: TNFα 10 ng/ml 6 hours, vinpocetine 50 μM
Experimental: (§3) Expression of TNFα, IL-1β, IL-8, MCP-1 and VCAM-1, ICAM-1, MIP-1 at mRNA levels were measured by Real-time quantitative RT-PCR (Q-PCR).
(§4) Total RNA was isolated with TRIzol reagent (Invitrogen) by following the manufacturer's instructions. For the reverse transcription reaction, TaqMan reverse transcription reagents (Applied Biosystems) were used. In brief, the reverse transcription reaction was performed for 60 min at 37° C., followed by 60 min at 42° C. by using oligo (dT) and random hexamers. PCR amplifications were performed by using SYBR Green Universal Master Mix. In brief, reactions were performed in duplicate containing 2× Universal Master Mix, 1 μl of template cDNA and 100 nM primers in a final volume of 12.5 μl, and they were analyzed in a 96-well optical reaction plate (Applied Biosystems). The relative quantities of mRNAs were obtained by using the comparative Ct method and were normalized with predeveloped Taqman assay reagent rat or mouse glyceraldehydes-3-phosphate dehydrogenase or human cyclophilin as an endogenous control (Applied Biosystems).

[5] = tested on: pro-inflammatory mediators at mRNA levels; assay: Q-PCR of TNFα-induced pro-inflammatory mediators in HUVECs; format: cell-based, human; settings: TNFα 10 ng/ml 6 hours, vinpocetine 50 μM
Experimental: as §3, §4

[6] = tested on: pro-inflammatory mediators at mRNA levels; assay: Q-PCR of TNFα-induced pro-inflammatory mediators in A549 cells; format: cell-based, human; settings: TNFα 10 ng/ml 6 hours, vinpocetine 50 μM
Experimental: as §3, §4

[7] = tested on: pro-inflammatory mediators at mRNA levels; assay: Q-PCR of TNFα-induced pro-inflammatory mediators in RAW264.7; format: cell-based, mouse; settings: TNFα 10 ng/ml 6 hours, vinpocetine 50 μM
Experimental: as §3, §4

[8] = tested on: U937 monocytes adhering to HUVECs; assay: Monocyte adhesion assay; format: cell-based, human; settings: 50 μM vinpocetine 30 min, then TNFα 10 ng/ml 6 hours
[9] = tested on: monocyte chemotaxis to VSMCs; assay: Monocyte chemotaxis assay (transwell migration, Boyden chamber); format: cell-based, rat; settings: various doses; TNFα 10 ng/ml 9 hours; VSMC-conditional medium
[10] = tested on: LPS-induced lung inflammation; assay: Mouse model of lung inflammation induced by LPS; format: in vivo; settings: mice
[11] = tested on: TNFα-induced lung inflammation; assay: Mouse model of lung inflammation induced by TNFα; format: in vivo; settings: mice; TNFα i.t. (500 ng per mouse)
Experimental: Lung tissues were collected and then stored at -80° C. for mRNA expression analysis. For polymorphonuclear neutrophil (PMN) recruitment analysis, broncho-alveolar lavage (BAL) was performed by cannulating the trachea with sterilized PBS, and cells from BAL was stained with Hemacolor (EM Science) after cytocentrifugation (Shandon Cytospin4, Thermo Electronic Co.). Three mice were used for each inoculation group. All animal experiments were approved by the institutional Animal Care and Use Committee at University of Rochester.

[12] = tested on: NF-κB activation; assay: NF-κB luciferase activity induced by CA-MEKK1, CA-IKKα, CA-IKKβ or WT p65 in VSMCs; format: cell-based, rat
[13] = tested on: IKK; assay: In vitro IKK kinase assay, compound applied directly to the IKK immune complex; format: biochemical, rat; settings: IKK immune complex in the test tube
[14] = tested on: IKK; assay: In vitro IKK kinase assay in the presence of cell lysates from vinpocetine-treated VSMCs; format: biochemical, rat
Experimental: Intensities of the GST-IκBα bands in the autoradiogram were measured by densitometric scanning.

[15] = tested on: cell morphology and viability; assay: Cytotoxic effects on cell morphology and viability; format: cell-based; settings: at the tested doses
[16] = tested on: NF-κB-dependent promoter activity; assay: IL-1- and LPS-induced NF-κB-dependent promoter activity; format: cell-based
[17] = patients, literature; cited from earlier work

For `O=C(O)CN(CCOCCOCCN(CC(=O)O)CC(=O)O)CC(=O)O` [EGTA], the “TNFα-induced IκBα phosphorylation and degradation” value [1] was “none of them exhibited any significant inhibitory effects”, the “effect on the ability of vinpocetine on IKK kinase activity, IκB phosphorylation, IκB degradation or NF-κB-dependent transcriptional activity” value [2] was “did not significantly affect” and the “TNFα-induced IKK kinase activity” value [2] was “none of them exhibited any significant inhibitory effects”.

For `NC1=N[C@H](O)[C@H]2[C@H]3O[C@]4(O)O[C@@H]([C@@H](O)[C@@]2(N1)[C@@H]4O)[C@]3(O)CO` [tetrodotoxin], the “effect on the effect of vinpocetine on NF-κB-dependent transcription” value [3] was “did not alter”.

For `CCOC(=O)C1=C[C@]2(CC)CCCN3CCc4c(n1c1ccccc41)[C@@H]32` [vinpocetine, (+)-vinpocetine], the “TNFα-induced expression of TNFα, IL-1β, IL-8, MCP-1 and VCAM-1 mRNA” value [4] was “potently inhibited”, the “TNFα-induced expression of TNFα, IL-1β, IL-8, MCP-1, VCAM-1 and ICAM-1 mRNA” value [5] was “inhibit” and the “TNFα-induced expression of TNFα, IL-1β and IL-8 mRNA” value [6] was “inhibit”. The “TNFα-induced expression of TNFα, IL-1β and MIP-2 mRNA” value [7] was “inhibit”, the “monocyte adhesion to HUVECs” value [8] was “markedly inhibited” and the “monocyte chemotaxis to VSMCs induced by TNFα” value [9] was “inhibited monocyte chemotaxis to VSMCs induced by TNFα in a dose-dependent manner”. The “induction of TNFα, IL-1β and MIP-2 mRNA in the lungs” value ([10]; LPS 2 μg/mouse i.t., vinpocetine 2.5, 5, 10 mg/kg i.p.) was “dose-dependently inhibited; also recorded: significantly inhibited”, the “PMN infiltration in BAL fluids” value ([10]; LPS i.t., vinpocetine 10 mg/kg i.p.) was “significantly inhibited” and the “induction of inflammatory mediators and PMN infiltration in the lungs” value [11] was “also inhibited”. For the same molecule, the “TNFα-induced IκBα phosphorylation and degradation” value [1] was “markedly inhibited”, the “TNFα-induced IKK kinase activity” value [2] was “inhibited TNFα-induced IKK activity in a dose-dependent manner” and the “NF-κB activation induced by CA-IKKα” value ([12]; constitutively active IKKα) was “inhibited”. For the same molecule, the “NF-κB activation induced by CA-IKKβ” value ([12]; constitutively active IKKβ) was “inhibited”, the “CA-MEKK1-induced NF-κB activation” value ([12]; constitutively active MEKK1) was “significantly inhibited” and the “IKK activity, compound directly applied to IKK” value [13] was “No significant inhibitory effect; also recorded: did not inhibit IKK activity”. For the same molecule, the “inhibition of IKK activity by cell lysates from vinpocetine-treated cells” value ([14]; cell lysates) was 50%, the “vinpocetine treatment concentration of lysate required for a significant effect on IKK inhibition ex vivo” value ([14]; cell lysates) was 100 µM and the “IKK activity in the presence of cell lysates from vinpocetine-treated cells” value ([14]; lysates of VSMCs preincubated with vinpocetine) was “inhibited IKK activity”. The “cytotoxic effects on cell morphology and viability” value [15] was “no significant cytotoxic effects”, the “IL-1- and LPS-induced NF-κB-dependent promoter activity” value [16] was “inhibited” and the “side effects, toxicity or contraindications at the therapeutic doses” value [17] was “no reports of significant side effects, toxicity or contraindications”. For the same molecule, the “TNFα-induced NF-κB-dependent promoter activity” value ([3]; rat aortic VSMCs, TNFα 10 ng/ml 6 hours, various doses) was “potently inhibited”.

For `CC(=O)OCOC(=O)CN(CC(=O)OCOC(C)=O)c1ccccc1OCCOc1ccccc1N(CC(=O)OCOC(C)=O)CC(=O)OCOC(C)=O` [BAPTA/AM], the “TNFα-induced IκBα phosphorylation and degradation” value [1] was “none of them exhibited any significant inhibitory effects”, the “effect on the ability of vinpocetine on IKK kinase activity, IκB phosphorylation, IκB degradation or NF-κB-dependent transcriptional activity” value [2] was “did not significantly affect” and the “TNFα-induced IKK kinase activity” value [2] was “none of them exhibited any significant inhibitory effects”.
